Data set [1] can be described thus: Relative comparison of bitterness with taste perception apparatus (relative to Reference Example 7). To be noted: aqueous solution of lenvatinib mesylate at a concentration of 1.225 mg/mL or more.
Method: Herein, the “bitterness” of Compound 1 or the pharmaceutically acceptable salt thereof is measured by the following method. A solution of Compound 1 at a concentration of 8 mg/mL as a free form is prepared by dissolving Compound 1 or the pharmaceutically acceptable salt thereof in a 10 mM potassium chloride aqueous solution. To the thus obtained solution, an additive is added if necessary, and the resultant is stirred for 30 minutes and then centrifuged to give a liquid phase component. The bitterness of the liquid phase component is measured using a taste sensor (ACO) for measuring bitterness, and the thus obtained value is used as a bitterness index.
As a blank solution for correction, a 10 mM potassium chloride aqueous solution was subjected to the measurement. […] Relative bitterness to Reference Example 7 was calculated in accordance with the following expression, and an average of the three measurement values is shown in Table 4 and FIG. 1. It is noted that the relative bitterness was calculated using merely data obtained through a series of continuous measurements. Relative bitterness to Reference Example 7(%)=(Measured value of each sample−Measured value of 10 mM potassium chloride aqueous solution)/(Measured value of Reference Example 7—Measured value of 10 mM potassium chloride aqueous solution)×100%
Data set [2] is described as follows: Bitterness measurement with taste perception apparatus, relative bitterness to Comparative Example 1. In kind it is physicochemical. Conditions: AC0 taste sensor; lenvatinib mesylate 9.8 mg/mL (8 mg/mL free form) in 10 mM potassium chloride aqueous solution, additive added, stirred 30 minutes, supernatant; average of three measurements.
Method: Herein, the “bitterness” of Compound 1 or the pharmaceutically acceptable salt thereof is measured by the following method. A solution of Compound 1 at a concentration of 8 mg/mL as a free form is prepared by dissolving Compound 1 or the pharmaceutically acceptable salt thereof in a 10 mM potassium chloride aqueous solution. To the thus obtained solution, an additive is added if necessary, and the resultant is stirred for 30 minutes and then centrifuged to give a liquid phase component. The bitterness of the liquid phase component is measured using a taste sensor (ACO) for measuring bitterness, and the thus obtained value is used as a bitterness index. […]
The measurement with the taste perception apparatus was performed four times on each sample, and three measurement results of the second to fourth measurements were used for the analysis. […] It is noted that the relative bitterness was calculated using merely data obtained through a series of continuous measurements. Relative bitterness to Comparative Example 1(%)=(Measured value of each sample−Measured value of 10 mM potassium chloride aqueous solution)/(Measured value of Comparative Example 1—Measured value of 10 mM potassium chloride aqueous solution)×100%

Each structure is given as a SMILES string. Where a name gives a salt, the structure may show the parent alone.

`COc1cc2nccc(Oc3ccc(NC(=O)NC4CC4)c(Cl)c3)c2cc1C(N)=O` [lenvatinib mesylate, Lenvatinib Mesylate]: the “bitterness compared with a 0.1 mM quinine hydrochloride aqueous solution” value in data set [1] is listed as “more bitter than a 0.1 mM quinine hydrochloride aqueous solution”.
With `COc1cc2nccc(Oc3ccc(NC(=O)NC4CC4)c(Cl)c3)c2cc1C(N)=O` [Comparative Example 1, Lenvatinib Mesylate], the “Relative Bitterness to Comparative Example 1 (%)” value in data set [2] is 100%.
